ChEMBL document CHEMBL3045493, “Synthesis and antifungal activity of novel 2,5-disubstituted-1,3,4-oxadiazoles containing benzimidazole moiety” (J Pestic Sci, 2012)
Values after ≈ are worked out from the molar mass of the structure shown.

Columns and labels:
Sclerotinia sclerotiorum = assay: Antifungal activity against benzimidazole-sensitive Sclerotinia sclerotiorum SS-JSZ01 assessed as inhibition of mycelium growth after 3 days followed by 96 hr incubation in light incubator; assay type: functional, organism-based
Botrytis cinerea = assay: Antifungal activity against benzimidazole moderately resistant Botryotinia fuckeliana BC-JfC02 assessed as inhibition of mycelium growth after 3 days followed by 96 hr incubation in light incubator; assay type: functional, organism-based

SMILES: Fc1ccc(Cn2c(-c3nnc(SCc4ccc(Cl)cc4Cl)o3)nc3ccccc32)cc1
- EC50 (Sclerotinia sclerotiorum): 0.55 µg/mL (≈ 1.13 µM)
- EC50 (Botrytis cinerea): 7.81 µg/mL (≈ 16.1 µM)

SMILES: CCSc1nnc(-c2nc3ccccc3n2Cc2ccc(F)cc2)o1
- EC50 (Sclerotinia sclerotiorum): 8.86 µg/mL (≈ 25 µM)
- EC50 (Botrytis cinerea): 3.08 µg/mL (≈ 8.69 µM)

SMILES: c1ccc(CSc2nnc(-c3nc4ccccc4[nH]3)o2)cc1
- EC50 (Sclerotinia sclerotiorum): 22.9 µg/mL (≈ 74.4 µM)
- EC50 (Botrytis cinerea): 18.4 µg/mL (≈ 59.6 µM)

SMILES: CCCCSc1nnc(-c2nc3ccccc3n2Cc2ccc(F)cc2)o1
- EC50 (Sclerotinia sclerotiorum): 0.94 µg/mL (≈ 2.46 µM)
- EC50 (Botrytis cinerea): 6.26 µg/mL (≈ 16.4 µM)

SMILES: CCCCSc1nnc(-c2nc3ccccc3[nH]2)o1
- EC50 (Sclerotinia sclerotiorum): 9.12 µg/mL (≈ 33.2 µM)
- EC50 (Botrytis cinerea): 9.86 µg/mL (≈ 35.9 µM)

SMILES: CCCSc1nnc(-c2nc3ccccc3[nH]2)o1
- EC50 (Sclerotinia sclerotiorum): 18.2 µg/mL (≈ 70 µM)
- EC50 (Botrytis cinerea): 16.6 µg/mL (≈ 63.6 µM)

SMILES: CSc1nnc(-c2nc3ccccc3[nH]2)o1
- EC50 (Sclerotinia sclerotiorum): 2.04 µg/mL (≈ 8.78 µM)
- EC50 (Botrytis cinerea): 10.6 µg/mL (≈ 45.5 µM)

SMILES: CCSc1nnc(-c2nc3ccccc3[nH]2)o1
- EC50 (Sclerotinia sclerotiorum): 1.31 µg/mL (≈ 5.32 µM)
- EC50 (Botrytis cinerea): 2.7 µg/mL (≈ 11 µM)

SMILES: CCCSc1nnc(-c2nc3ccccc3n2Cc2ccc(F)cc2)o1
- EC50 (Sclerotinia sclerotiorum): 2.03 µg/mL (≈ 5.51 µM)
- EC50 (Botrytis cinerea): 5.63 µg/mL (≈ 15.3 µM)

SMILES: CC(C)Sc1nnc(-c2nc3ccccc3n2Cc2ccc(F)cc2)o1
- EC50 (Sclerotinia sclerotiorum): 10.2 µg/mL (≈ 27.5 µM)
- EC50 (Botrytis cinerea): 11.4 µg/mL (≈ 30.9 µM)

SMILES: Fc1ccc(Cn2c(-c3nnc(SCc4ccc(Cl)cc4)o3)nc3ccccc32)cc1
- EC50 (Sclerotinia sclerotiorum): 0.43 µg/mL (≈ 0.954 µM)
- EC50 (Botrytis cinerea): 6.07 µg/mL (≈ 13.5 µM)

SMILES: Fc1ccc(CSc2nnc(-c3nc4ccccc4[nH]3)o2)cc1
- EC50 (Sclerotinia sclerotiorum): 20.5 µg/mL (≈ 62.7 µM)
- EC50 (Botrytis cinerea): 12.8 µg/mL (≈ 39.1 µM)

SMILES: CC(C)Sc1nnc(-c2nc3ccccc3[nH]2)o1
- EC50 (Sclerotinia sclerotiorum): 23.4 µg/mL (≈ 89.8 µM)
- EC50 (Botrytis cinerea): 24.1 µg/mL (≈ 92.8 µM)

SMILES: Fc1ccc(Cn2c(-c3nnc(SCc4ccccc4)o3)nc3ccccc32)cc1
- EC50 (Sclerotinia sclerotiorum): 0.04 µg/mL (≈ 0.096 µM)
- EC50 (Botrytis cinerea): 1.31 µg/mL (≈ 3.15 µM)

SMILES: Fc1ccc(CSc2nnc(-c3nc4ccccc4n3Cc3ccc(F)cc3)o2)cc1
- EC50 (Sclerotinia sclerotiorum): 7.52 µg/mL (≈ 17.3 µM)
- EC50 (Botrytis cinerea): 13.9 µg/mL (≈ 32.1 µM)

SMILES: CSc1nnc(-c2nc3ccccc3n2Cc2ccc(F)cc2)o1
- EC50 (Sclerotinia sclerotiorum): 12.4 µg/mL (≈ 36.3 µM)
- EC50 (Botrytis cinerea): 14 µg/mL (≈ 41 µM)

SMILES: COC(=O)Nc1nc2ccccc2[nH]1 [CARBENDAZIM]
- EC50 (Sclerotinia sclerotiorum): 0.13 µg/mL (≈ 0.68 µM)
- EC50 (Botrytis cinerea): 7.4 µg/mL (≈ 38.7 µM)

SMILES: Clc1ccc(CSc2nnc(-c3nc4ccccc4[nH]3)o2)c(Cl)c1
- EC50 (Sclerotinia sclerotiorum): 22.7 µg/mL (≈ 60.3 µM)
- EC50 (Botrytis cinerea): 16.4 µg/mL (≈ 43.4 µM)

SMILES: Clc1ccc(CSc2nnc(-c3nc4ccccc4[nH]3)o2)cc1
- EC50 (Sclerotinia sclerotiorum): 9.1 µg/mL (≈ 26.5 µM)
- EC50 (Botrytis cinerea): 14.8 µg/mL (≈ 43.3 µM)
